The text below walks through data of PubChem BioAssay (NCI).

Structures are written as SMILES.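 Grown in 96-well plates, cells were treated for 48 hours with each compound at five concentrations. Insufficient inhibition: endpoint recorded as highest concentration tested. GI50 is the concentration that inhibits growth by half. TGI: concentration producing complete growth inhibition.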

Some test systems named below: M14 melanoma; COLO 205 colon; SF-295 CNS; SF-268 CNS; UACC-257 melanoma; A498 renal; HOP-62 NSCLC; MCF7 breast; MOLT-4 leukemia; SR leukemia.
Common to all, as to test: inhibition of tumour cell growth, NCI panel, 48 h

With `c1ccc(P(=Nc2ccccc2N=P(c2ccccc2)(c2ccccc2)c2ccccc2)(c2ccccc2)c2ccccc2)cc1`, the TGI was 15.7 µM in the experiment on M14 melanoma; 3.04 µM in the experiment with COLO 205 colon; 10.7 µM in the experiment with SF-295 CNS; above 100 µM with SF-268 CNS; 12.5 µM with UACC-257 melanoma; 5.56 µM in the experiment with A498 renal. In the experiment on HOP-62 NSCLC, this molecule showed a TGI of 2.73 µM.
`Nc1ccc(-c2nc3ccccc3[nH]2)c2ccccc12`: the GI50 was 2.73 µM with M14 melanoma; 3.41 µM with COLO 205 colon; 2.38 µM in the experiment on MCF7 breast; 1.56 µM with SF-295 CNS; 5.93 µM in the experiment with SF-268 CNS; 6.46 µM with UACC-257 melanoma. Moreover, the values for the GI50 with MOLT-4 leukemia, with A498 renal and in the experiment on HOP-62 NSCLC were 3.44 µM, 1.07 µM and 6.16 µM, respectively. The TGI in the experiment with M14 melanoma is 17.6 µM; with COLO 205 colon it was 24.6 µM; in the experiment with MCF7 breast it was above 100 µM; in the experiment with SF-295 CNS, above 28.9 µM; in the experiment on SF-268 CNS, above 100 µM; in the experiment on UACC-257 melanoma it was above 100 µM. For the same molecule, the TGI with MOLT-4 leukemia is above 100 µM; in the experiment with A498 renal, 15 µM; in the experiment on HOP-62 NSCLC, above 100 µM.
Turning to `COC(=O)CC1NC(=O)C1C1(C)OCCO1` (centres undefined), the TGI in the experiment with M14 melanoma, with COLO 205 colon, with SR leukemia, with SF-295 CNS, in the experiment on SF-268 CNS and with UACC-257 melanoma was above 100 µM throughout. Besides, the TGI in the experiment with A498 renal and with HOP-62 NSCLC was above 100 µM each time.
Turning to `C/C=C(\C)c1cc(O)c(C)c2c1Oc1cc(O)c(Cl)c(C)c1C(=O)O2`, the TGI in the experiment on M14 melanoma is 43.4 µM; with COLO 205 colon, 49.3 µM; with SR leukemia, 49.5 µM; in the experiment on SF-295 CNS it was 32.4 µM; in the experiment on SF-268 CNS, 66 µM; in the experiment on UACC-257 melanoma, 44.2 µM. Besides, the TGI in the experiment with HOP-62 NSCLC amounted to 51.1 µM.
Regarding `COc1cc(-c2cc(-c3cc([N+](=O)[O-])c(/C=N/NC(=O)c4ccncc4)o3)ccc2OC)ccc1C`, the TGI in the experiment on M14 melanoma, in the experiment on COLO 205 colon, in the experiment with SF-295 CNS, with SF-268 CNS, in the experiment on UACC-257 melanoma and in the experiment on A498 renal was above 100 µM each time. Besides, the TGI with HOP-62 NSCLC is above 100 µM.
Consider `O=C([CH-]C(=O)c1ccccc1)c1ccccc1.O=C([CH-]C(=O)c1ccccc1)c1ccccc1.[OH-].[OH-].[Ti+4]`, for which the GI50 with M14 melanoma is 36.2 µM; in the experiment with COLO 205 colon, above 100 µM; in the experiment with SF-295 CNS, 30.4 µM; with SF-268 CNS, 92.5 µM; in the experiment with UACC-257 melanoma it was above 100 µM; in the experiment with MOLT-4 leukemia, 54.7 µM. The GI50 in the experiment on A498 renal was 40.5 µM; with HOP-62 NSCLC it was 27.1 µM. Besides, the TGI in the experiment with M14 melanoma, in the experiment with COLO 205 colon, with SF-295 CNS, with SF-268 CNS, with UACC-257 melanoma and in the experiment with MOLT-4 leukemia was above 100 µM in each case. Further, the TGI with A498 renal and in the experiment on HOP-62 NSCLC was above 100 µM each time.
On to `CCCCCCN(N)C(=O)CC#N`, for which the TGI in the experiment with M14 melanoma, in the experiment with COLO 205 colon, in the experiment with SF-268 CNS, in the experiment with UACC-257 melanoma, in the experiment with MOLT-4 leukemia and in the experiment on A498 renal was above 100 µM each time. Moreover, in the experiment with HOP-62 NSCLC, the TGI was above 100 µM.
Take `COCCOCOc1ccc(OCOCCOC)c2c1C(=O)c1ccccc1C2=O`: the TGI in the experiment on M14 melanoma is above 100 µM; in the experiment with COLO 205 colon, above 100 µM; in the experiment with SF-295 CNS, above 100 µM; in the experiment with SF-268 CNS, above 100 µM; in the experiment on UACC-257 melanoma, above 88.9 µM; with MOLT-4 leukemia, above 100 µM. For the same molecule, the TGI in the experiment with A498 renal and in the experiment on HOP-62 NSCLC was above 100 µM throughout.
As to `Cc1ccc(C2=Nc3ccccc3SC(c3cccc([N+](=O)[O-])c3)C2)cc1` (centres undefined), the TGI in the experiment on M14 melanoma, with COLO 205 colon, with MCF7 breast, with SF-295 CNS, in the experiment on SF-268 CNS and in the experiment on UACC-257 melanoma was above 100 µM throughout. For the same molecule, the TGI in the experiment with A498 renal and in the experiment on HOP-62 NSCLC was above 100 µM each time.
As for `CCN(CCO)CC(C)Nc1ccc([N+](=O)[O-])c2sc3ccccc3c(=O)c12` (centres undefined), the GI50 with M14 melanoma was 1.54 µM; in the experiment on COLO 205 colon it was 1.62 µM; in the experiment on MCF7 breast, 0.436 µM; in the experiment on SF-295 CNS, 0.488 µM; in the experiment with SF-268 CNS, 1.98 µM; in the experiment with UACC-257 melanoma, 1.47 µM. The GI50 was 0.361 µM in the experiment with MOLT-4 leukemia, 0.252 µM in the experiment on A498 renal and 1.27 µM in the experiment on HOP-62 NSCLC. Further, the TGI in the experiment with M14 melanoma worked out at 3.45 µM; in the experiment with COLO 205 colon, 5.96 µM; in the experiment on MCF7 breast, 4.15 µM; with SF-295 CNS, 2.12 µM; in the experiment with SF-268 CNS it was 11.5 µM; in the experiment with UACC-257 melanoma it was 2.85 µM. Further, the TGI in the experiment on MOLT-4 leukemia turned out to be 2.89 µM; with A498 renal, 9.54 µM; with HOP-62 NSCLC, 5.55 µM.
In the case of `O=P1(Oc2ccccc2)C(c2ccccc2)C(c2ccccc2)=NN1c1ccccc1` (centres undefined), the TGI was 39.6 µM in the experiment on M14 melanoma; 36.4 µM in the experiment with COLO 205 colon; 89.5 µM with SF-295 CNS; 93.6 µM in the experiment with SF-268 CNS; 75.8 µM in the experiment on UACC-257 melanoma; 57 µM with MOLT-4 leukemia. The TGI is 84.6 µM with A498 renal and 71.3 µM in the experiment with HOP-62 NSCLC.
For `Cc1cc2c(c(C(=O)O)c1C)-c1cccc(F)c1C2=O`, the TGI in the experiment on M14 melanoma, with COLO 205 colon, in the experiment on SF-295 CNS, in the experiment with SF-268 CNS, in the experiment with UACC-257 melanoma and in the experiment with MOLT-4 leukemia was above 100 µM throughout. This molecule also came in with a TGI with HOP-62 NSCLC above 100 µM.
In the case of `CC1(C)OCC(C(O)C2OC(C)(C)OC2/C=N\O)O1` (centres undefined), the TGI in the experiment with COLO 205 colon, in the experiment on SF-295 CNS, in the experiment on SF-268 CNS, with UACC-257 melanoma, with MOLT-4 leukemia and in the experiment with A498 renal was above 100 µM throughout. In the experiment with HOP-62 NSCLC, this molecule displayed a TGI above 100 µM.
As for `CC1CN1c1c(C(=O)/C=C/c2ccccc2)c(-c2ccccc2)nn(C)c1=O` (centres undefined), the TGI in the experiment on M14 melanoma was found to be 32.8 µM; in the experiment with COLO 205 colon, 29.7 µM; with SF-295 CNS it was 46.8 µM; in the experiment with SF-268 CNS, 56.2 µM; in the experiment on UACC-257 melanoma it was 36.4 µM; in the experiment on MOLT-4 leukemia, 52.7 µM. Also, the TGI in the experiment on A498 renal was determined as 32.4 µM; in the experiment with HOP-62 NSCLC, 46.3 µM.
